Patent publication US20250230165A1, “HETEROCYCLIC COMPOUNDS FOR USE IN THE TREATMENT OF CANCER” (ARTIOS PHARMA LIMITED, priority 2021, published 2025)

Target: T1, Human Polθ polymerase domain (aa1820-2590) (Homo sapiens, UniProt O75417)
T1 construct: Human Polθ polymerase domain (aa1820-2590) was expressed in E. coli; made in house; host or cells: E. coli
T1 sequence (O75417 1820-2590): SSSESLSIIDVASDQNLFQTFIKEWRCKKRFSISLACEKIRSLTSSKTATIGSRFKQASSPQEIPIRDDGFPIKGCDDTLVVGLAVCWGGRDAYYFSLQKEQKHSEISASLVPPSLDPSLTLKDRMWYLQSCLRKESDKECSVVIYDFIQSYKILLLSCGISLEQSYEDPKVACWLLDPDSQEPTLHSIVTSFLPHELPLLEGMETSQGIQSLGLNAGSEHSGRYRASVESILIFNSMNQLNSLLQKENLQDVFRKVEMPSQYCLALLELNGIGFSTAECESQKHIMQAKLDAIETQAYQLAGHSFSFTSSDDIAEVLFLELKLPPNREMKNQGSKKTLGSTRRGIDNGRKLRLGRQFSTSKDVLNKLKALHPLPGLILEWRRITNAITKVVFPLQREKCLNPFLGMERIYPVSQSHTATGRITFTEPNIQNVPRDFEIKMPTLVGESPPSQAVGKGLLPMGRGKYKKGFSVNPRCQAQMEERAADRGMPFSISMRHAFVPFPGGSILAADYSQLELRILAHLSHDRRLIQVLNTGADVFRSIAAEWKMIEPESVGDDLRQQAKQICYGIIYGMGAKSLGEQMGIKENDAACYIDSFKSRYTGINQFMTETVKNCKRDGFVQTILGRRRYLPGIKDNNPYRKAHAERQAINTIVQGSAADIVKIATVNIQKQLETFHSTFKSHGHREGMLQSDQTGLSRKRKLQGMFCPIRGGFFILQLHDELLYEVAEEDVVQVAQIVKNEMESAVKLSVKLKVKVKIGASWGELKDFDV
Experiment: Polθ Polymerase Domain Kinact/KI Assay (PicoGreen)
Assay type: biochemical
Settings: 0.8 nM Polθ, 100 nM DNA substrate, kobs vs [I] fit for 2-step covalent inhibitor
Protocol: Polθ Polymerase Domain Kinact/KI Assay
A PicoGreen assay was used to measure the Kinact and KI values of covalent compounds that inhibit the activity of Polθ in vitro.
Human Polθ polymerase domain (aa1820-2590) was expressed in E. coli, purified, aliquoted and stored at −80° C. until required. Polθ substrate was generated from a 1.2:1 mix of DNA II Short to DNA II Long to give a final concentration of […] substrate in annealing buffer (20 mM Tris pH 7.5, 50 mM NaCl). The substrate was heated in […] aliquots to 95° C. in a heating block for 5 min before the heating block switched off, the reaction left to cool to rt and stored at −20° C. until required.
Assay measurements were performed with 1× buffer comprising 25 mM Tris pH 7.5, 12.5 mM NaCl, […], 5% (v/v) glycerol, 0.01% v/v Triton x-100, 0.1 mg/ml BSA, 1 mM DTT. Test compounds were prepared by dilution in 100% DMSO to give a 12 μM intermediate stock of each (100× final top concentration). 100 nL of 23×1:1.5-fold serial dilutions and a DMSO only control were dispensed using the Tecan dispenser into Greiner 384 well black low volume plates (product code 784076). DMSO concentration was maintained at 1% of the final assay volume by back filling with DMSO.
2× Working stock of substrate (200 nM of DNA substrate and […] dNTPs) and enzyme ([…] PolΘ) were made up in assay buffer. 5 μL/well of both enzyme and substrate 2× solutions were dispensed using a Tempest dispenser (Formulatrix) into assay plates that had been pre-dispensed with compound to give a final assay concentration of 100 nM DNA substrate, […] dNTPs and 0.8 nM Polθ. To stop the reaction, […] of a solution containing 25 mM Tris-HCl pH 7.5 and 20 mM EDTA was added at […] (t=0, 2.5, 5, 7.5, 10, 12.5, 15, 20, 25, 30, 35, 40, 45, 50, 55 and 60 min) using the Tempest's time delay function. The plates were covered during the time course to prevent evaporation. After completing the assay, 5 μL of detection reagent (25 mM Tris-HCl pH 7.5 and 2.5% (v/v) PicoGreen) was dispensed into the wells using a Tempest liquid handler (Formulatrix) and plates subsequently read on the CLARIOstar Plus (BMG Labtech) using the default optical settings for fluorescein and the auto gain/focus settings.
All data analysis was carried out using GraphPad Prism V.8 (GraphPad Software Inc, San Diego, CA) Time course data for each inhibitor concentration was fitted to equation 1 to determine kobs values.^1 Any time points where the control (DMSO alone) reaction was no longer linear were excluded from the analysis. 1) Evaluation of Enzyme Inhibitors in Drug Discovery (Ch9), R. A Copeland, Wiley, 2nd Edition 2013.
A secondary plot of kobs vs [I] is used to determine the Kinact and KI parameters (for a 2-step covalent inhibitor) by fitting to equation 2.^1

**Q.** `C=CC(=O)N1CCN2CCN(C(=O)CN3C[C@H]4CC(=O)N(c5cc(C(F)(F)F)cc(C)n5)[C@@H]4C(=O)N(C)c4cccc(F)c43)CC2C1` (mixture of isomers) [Example 76b, (3aR,11aS)-5-(2-((S/R)-8-acryloyloctahydro-2H-pyrazino[1,2-a]pyrazin-2-yl)-2-oxoethyl)-6-fluoro-10-methyl-1-(6-methyl-4-(trifluoromethyl)pyridin-2-yl)-1,3a,4,5,10,11a-hexahydro-2H-benzo[b]pyrrolo[2,3-f][1,4]diazocine-2,11(3H)-dione] was tested. Which Kinact/Kl did it give?
**A.** The Kinact/Kl was 940000 M⁻¹ s⁻¹.

**Q.** How did the Kinact/Kl turn out when `C=CC(=O)N1CCC(N2CCC(CN3C[C@H]4CC(=O)N(c5cc(C(F)(F)F)cc(C)n5)[C@@H]4C(=O)N(C)c4cccc(C)c43)CC2)C1` (mixture of isomers) [Example 95a, (3aR,11aS)-5-((1-((S/R)-1-acryloylpyrrolidin-3-yl)piperidin-4-yl)methyl)-6,10-dimethyl-1-(6-methyl-4-(trifluoromethyl)pyridin-2-yl)-1,3a,4,5,10,11a-hexahydro-2H-benzo[b]pyrrolo[2,3-f][1,4]diazocine-2,11(3H)-dione] was run?
**A.** Its Kinact/Kl is 2.63e+06 M⁻¹ s⁻¹.

**Q.** With `C=CC(=O)N1CCC(N2CCC(CN3C[C@H]4CC(=O)N(c5cc(C(F)(F)F)cc(C)n5)[C@@H]4C(=O)N(C)c4cccc(C)c43)CC2)C1` (mixture of isomers) [Example 95b, (3aR,11aS)-5-((1-((R/S)-1-acryloylpyrrolidin-3-yl)piperidin-4-yl)methyl)-6,10-dimethyl-1-(6-methyl-4-(trifluoromethyl)pyridin-2-yl)-1,3a,4,5,10,11a-hexahydro-2H-benzo[b]pyrrolo[2,3-f][1,4]diazocine-2,11(3H)-dione] as the compound, how does the Kinact/Kl read?
**A.** Its Kinact/Kl is 2.5e+06 M⁻¹ s⁻¹.

**Q.** For `C=CC(=O)N1CCN2C(=O)CN(CCN3C[C@H]4CC(=O)N(c5cc(C(F)(F)F)cc(C)n5)[C@@H]4C(=O)N(C)c4cccc(F)c43)CC2C1` (mixture of isomers) [Example 116a, (3aR,11aS)-5-(2-((R/S)-8-acryloyl-4-oxooctahydro-2H-pyrazino[1,2-a]pyrazin-2-yl)ethyl)-6-fluoro-10-methyl-1-(6-methyl-4-(trifluoromethyl)pyridin-2-yl)-1,3a,4,5,10,11a-hexahydro-2H-benzo[b]pyrrolo[2,3-f][1,4]diazocine-2,11(3H)-dione], which Kinact/Kl is on record?
**A.** The Kinact/Kl was 1.17e+06 M⁻¹ s⁻¹.

**Q.** With `C=CC(=O)N1Cc2cc(CN3C[C@H]4CC(=O)N(c5cc(C(F)(F)F)cc(C)n5)[C@@H]4C(=O)N(C)c4cccc(Cl)c43)cnc2C1COC` (mixture of isomers) [Example 236, (3aR,11aS)-5-(((S/R)-6-acryloyl-7-(methoxymethyl)-6,7-dihydro-5H-pyrrolo[3,4-b]pyridin-3-yl)methyl)-6-chloro-10-methyl-1-(6-methyl-4-(trifluoromethyl)pyridin-2-yl)-1,3a,4,5,10,11a-hexahydro-2H-benzo[b]pyrrolo[2,3-f][1,4]diazocine-2,11(3H)-dione] as the compound, how does the Kinact/Kl read?
**A.** The Kinact/Kl was 1.24e+06 M⁻¹ s⁻¹.

**Q.** For `C=CC(=O)N1Cc2nc(CN3C[C@H]4CC(=O)N(c5cc(C(F)(F)F)cc(C)n5)[C@@H]4C(=O)N(C)c4cccc(Cl)c43)cn2CC1C(F)F` (mixture of isomers) [Example 243a, (3aR,11aS)-5-(((S/R)-7-acryloyl-6-(difluoromethyl)-5,6,7,8-tetrahydroimidazo[1,2-a]pyrazin-2-yl)methyl)-6-chloro-10-methyl-1-(6-methyl-4-(trifluoromethyl)pyridin-2-yl)-1,3a,4,5,10,11a-hexahydro-2H-benzo[b]pyrrolo[2,3-f][1,4]diazocine-2,11(3H)-dione], which Kinact/Kl is on record?
**A.** Its Kinact/Kl is 1.03e+06 M⁻¹ s⁻¹.

**Q.** Which Kinact/Kl does the source give for `C=CC(=O)N1Cc2nc(CN3C[C@H]4CC(=O)N(c5cc(C(F)(F)F)cc(C)n5)[C@@H]4C(=O)N(C)c4cccc(Cl)c43)cn2CC1C(F)F` (mixture of isomers) [Example 243b, (3aR,11aS)-5-(((R/S)-7-acryloyl-6-(difluoromethyl)-5,6,7,8-tetrahydroimidazo[1,2-a]pyrazin-2-yl)methyl)-6-chloro-10-methyl-1-(6-methyl-4-(trifluoromethyl)pyridin-2-yl)-1,3a,4,5,10,11a-hexahydro-2H-benzo[b]pyrrolo[2,3-f][1,4]diazocine-2,11(3H)-dione] here?
**A.** Its Kinact/Kl is 580000 M⁻¹ s⁻¹.

**Q.** For `C=CC(=O)NC1CCN(CCN2C[C@H]3CC(=O)N(c4cc(C(F)(F)F)cc(C)n4)[C@@H]3C(=O)N(C)c3cccc(Cl)c32)CC1(F)F` (mixture of isomers) [Example 257a, N—((S/R)-1-(2-((3aR,11aS)-6-chloro-10-methyl-1-(6-methyl-4-(trifluoromethyl)pyridin-2-yl)-2,11-dioxo-1,2,3,3a,4,10,11,11a-octahydro-5H-benzo[b]pyrrolo[2,3-f][1,4]diazocin-5-yl)ethyl)-3,3-difluoropiperidin-4-yl)acrylamide], which Kinact/Kl is on record?
**A.** The Kinact/Kl was 2.17e+06 M⁻¹ s⁻¹.

**Q.** How did the Kinact/Kl turn out when `C=CC(=O)NC1CCN(CCN2C[C@H]3CC(=O)N(c4cc(C(F)(F)F)cc(C)n4)[C@@H]3C(=O)N(C)c3cccc(Cl)c32)CC1(F)F` (mixture of isomers) [Example 257b, N—((R/S)-1-(2-((3aR,11aS)-6-chloro-10-methyl-1-(6-methyl-4-(trifluoromethyl)pyridin-2-yl)-2,11-dioxo-1,2,3,3a,4,10,11,11a-octahydro-5H-benzo[b]pyrrolo[2,3-f][1,4]diazocin-5-yl)ethyl)-3,3-difluoropiperidin-4-yl)acrylamide] was run?
**A.** The Kinact/Kl was 2.56e+06 M⁻¹ s⁻¹.

**Q.** How did the Kinact/Kl turn out when `C=CC(=O)N1CCN(CCN2C[C@H]3CC(=O)N(c4cc(C(F)(F)F)cc(C)n4)[C@@H]3C(=O)N(C)c3cccc(Cl)c32)CC1CC#N` (mixture of isomers) [Example 258a, 2-((R/S)-1-acryloyl-4-(2-((3aR,11aS)-6-chloro-10-methyl-1-(6-methyl-4-(trifluoromethyl)pyridin-2-yl)-2,11-dioxo-1,2,3,3a,4,10,11,11a-octahydro-5H-benzo[b]pyrrolo[2,3-f][1,4]diazocin-5-yl)ethyl)piperazin-2-yl)acetonitrile] was run?
**A.** The Kinact/Kl was 1.65e+06 M⁻¹ s⁻¹.

**Q.** Which Kinact/Kl does the source give for `C=CC(=O)N1CCN(CCN2C[C@H]3CC(=O)N(c4cc(C(F)(F)F)cc(C)n4)[C@@H]3C(=O)N(C)c3cccc(Cl)c32)CC1CC#N` (mixture of isomers) [Example 258b, 2-((S/R)-1-acryloyl-4-(2-((3aR,11aS)-6-chloro-10-methyl-1-(6-methyl-4-(trifluoromethyl)pyridin-2-yl)-2,11-dioxo-1,2,3,3a,4,10,11,11a-octahydro-5H-benzo[b]pyrrolo[2,3-f][1,4]diazocin-5-yl)ethyl)piperazin-2-yl)acetonitrile] here?
**A.** The Kinact/Kl was 1.53e+06 M⁻¹ s⁻¹.

**Q.** `C=CC(=O)N1CCN(CCCN2C[C@H]3CC(=O)N(c4cc(C(F)(F)F)cc(C)n4)[C@@H]3C(=O)N(C)c3cccc(C)c32)CC1C(F)(F)F` (mixture of isomers) [Example 265a, (3aR,11aS)-5-(3-((S/R)-4-acryloyl-3-(trifluoromethyl)piperazin-1-yl)propyl)-6,10-dimethyl-1-(6-methyl-4-(trifluoromethyl)pyridin-2-yl)-1,3a,4,5,10,11a-hexahydro-2H-benzo[b]pyrrolo[2,3-f][1,4]diazocine-2,11(3H)-dione] was tested. Which Kinact/Kl did it give?
**A.** The Kinact/Kl was 3.32e+06 M⁻¹ s⁻¹.
